Patent publication US9068977B2, “Non-linear rotation rates of remotely driven particles and uses thereof” (THE REGENTS OF THE UNIVERSITY OF MICHIGAN, priority 2007, dated 2015)

Tests used:
E. coli K-12 bacteria = experiment: Effect of antibiotic on bacterial growth, monitored by nonlinear rotation of magnetic particles; assay type: cell-based; conditions: 5% w/v Ampicillin antibiotic solution; cluster of 40 μm magnetic particles attached to small colony; Luria Broth (Miller) Growth Media; FIG. 9 bottom curve
From the text: The top curve is for several particles attached to a small colony of E. coli K-12 bacteria in Luria Broth (Miller) Growth Media. The rotational period increases over time, indicating bacterial grow. […] In certain configurations, especially when particles are at an interface, such as an air-liquid interface, the nonlinear rotation may occur in a plane perpendicular to the plane of the external driving magnetic field. This type of nonlinear rotation occurred in the above exemplary measurement.

E. coli = experiment: Growth of bacteria attached to a magnetic microsphere, monitored by nonlinear rotation period; assay type: cell-based; conditions: bacteria exposed to isopropyl alcohol (70%) for 15 minutes; control, FIG. 4d circles; growth media alone gave 75% increase over 25 min
From the text: Rotation rates were observed under fluorescent, reflection, and bright-field microscopy. FIG. 4(a) was obtained by measuring the average rotation rate of a magnetic microsphere (with an attached E. coli) for increasing magnetic driving frequencies. The critical frequency, where the magnetic particle goes from synchronous with driving field to asynchronous (nonlinear), occurs abruptly at 1.27 Hz. Measurements for (b), (c), and (d) were then made in this nonlinear regime. Bacteria attached to magnetic microspheres were optically detected by fluorescence of DsRed fluorescent protein transformed bacteria.
The magnetic microspheres with one bacterium attached rotated 33.8 times slower than the blank microspheres. […] There was an incremental 75% increase in rotation period over 25 min.

| SMILES | normalized rotational period over time (indicator of bacterial growth) (E. coli K-12 bacteria) | change in normalized rotation period (growth of attached bacteria) (E. coli) |
| --- | --- | --- |
| CC1(C)S[C@@H]2[C@H](NC(=O)[C@H](N)c3ccccc3)C(=O)N2[C@H]1C(=O)O [Ampicillin] | decreases or stays constant over time |  |
| CC(C)O [isopropyl alcohol] |  | an increase just within the limits of the error bars |
